These results are taken from patent US11236106B2, “Cycloalkane-1,3-diamine derivative” (Daiichi Sankyo Company, Limited, priority 2018, dated 2022).

Where a name gives a salt, the structure may show the parent alone.

The target of the first test is T1, menin and MLL (menin, Flag tagged; biotinylated MLL1 peptide 1-46aa) (Homo sapiens, UniProt O00255).
T1 sequence (O00255 1-610): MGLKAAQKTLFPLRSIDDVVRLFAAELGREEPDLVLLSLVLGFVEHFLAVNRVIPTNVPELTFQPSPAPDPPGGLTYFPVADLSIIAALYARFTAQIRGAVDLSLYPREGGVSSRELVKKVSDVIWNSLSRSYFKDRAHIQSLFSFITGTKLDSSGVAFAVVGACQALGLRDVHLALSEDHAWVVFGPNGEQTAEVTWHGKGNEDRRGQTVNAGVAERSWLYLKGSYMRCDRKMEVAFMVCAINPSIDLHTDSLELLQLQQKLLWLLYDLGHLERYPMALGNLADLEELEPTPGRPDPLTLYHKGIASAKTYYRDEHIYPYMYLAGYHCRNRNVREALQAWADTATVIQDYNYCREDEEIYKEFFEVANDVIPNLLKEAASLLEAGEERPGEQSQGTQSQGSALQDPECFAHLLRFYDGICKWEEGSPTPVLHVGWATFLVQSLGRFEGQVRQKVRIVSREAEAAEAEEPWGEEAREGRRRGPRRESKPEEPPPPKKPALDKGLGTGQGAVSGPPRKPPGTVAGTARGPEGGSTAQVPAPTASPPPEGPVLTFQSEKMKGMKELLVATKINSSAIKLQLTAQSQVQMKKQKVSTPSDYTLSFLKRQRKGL
Description: biochemical. The following applies: IC50, binding inhibitory activity between menin and MLL, AlphaLISA; 1 nM menin, 10 nM biotinylated MLL1 peptide.
Description: Then, the fluorescence signal by AlphaLISA (registered trademark, PerkinElmer Co., Ltd.) was measured using a plate reader (PerkinElmer Co., Ltd., EnVisionXcite).
The molecule `[2H]C([2H])([2H])N(c1ncc(-c2ccc(CN[C@H]3C[C@@H](O)[C@@H](N(C)c4ncnc5sc(CC(F)(F)F)cc45)C3)cc2)cc1OC)C([2H])([2H])[2H]` [Example 122, (1R,2S,4R)-4-({[4-(6-{bis[(^2H3)methyl]amino}-5-methoxypyridin-3-yl)phenyl]methyl}amino)-2-{methyl[6-(2,2,2-trifluoroethyl)thieno[2,3-d]pyrimidin-4-yl]amino}cyclopentan-1-ol] registered a concentration for half-maximal inhibition (IC50) of 1.7 nM.
`COc1nc(N(C)[C@H]2C[C@@H](NCc3ccc(-c4cnc(CO)c(OC)c4)cc3)C[C@H]2O)c2cc(CC(F)(F)F)sc2n1` [Example 112, (1R,2S,4R)-4-[({4-[6-(hydroxymethyl)-5-methoxypyridin-3-yl]phenyl}methyl)amino]-2-{[2-methoxy-6-(2,2,2-trifluoroethyl)thieno[2,3-d]pyrimidin-4-yl](methyl)amino}cyclopentan-1-ol hydrochloride] showed an IC50 of 0.8 nM.
`CNc1nc(N(C)[C@H]2C[C@@H](NCc3ccc(-c4cccc(S(=O)(=O)N(C)C)c4)cc3)C[C@H]2O)c2cc(CC(F)(F)F)sc2n1` [Example 69, 4′-({[(1R,3R,4S)-3-hydroxy-4-{methyl[2-(methylamino)-6-(2,2,2-trifluoroethyl)thieno[2,3-d]pyrimidin-4-yl]amino}cyclopentyl]amino}methyl)-N,N-dimethyl[1,1′-biphenyl]-3-sulfonamide hydrochloride] returned a half-maximal inhibitory concentration (IC50) of 2.8 nM.

Staying with this test, now noted: cell free IC50 (nM), 1 nM menin, 10 nM biotinylated MLL1 peptide, AlphaLISA.
For `COc1cncc(-c2ccc(CN[C@@H]3C[C@H](Nc4ncnc5sc(CC(F)(F)F)cc45)CC(F)(F)C3)cc2)c1` [Example 52, (1R,3S)-5,5-difluoro-N^1-{[4-(5-methoxypyridin-3-yl)phenyl]methyl}-N^3-[6-(2,2,2-trifluoroethyl)thieno[2,3-d]pyrimidin-4-yl]cyclohexane-l,3-diamine hydrochloride], the IC50 was found to be 612 nM.
On to `CN(c1ncnc2sc(CC(F)(F)F)cc12)[C@@H]1CC[C@H](NCc2ccc(S(=O)(=O)N3CCCC(O)C3)cc2)C1` (mixture of isomers) [Example 57, l-[4-({[(1S,3R)-3-{methyl[6-(2,2,2trifluoroethyl)thieno[2,3-d]pyrimidin-4-yl]amino}cyclopentyl]amino}methyl)benzene-1-sulfonyl]piperidin-3-ol hydrochloride (diastereomer mixture)], for which inhibition was half-maximal at 61.2 nM (IC50).
In the case of `COc1cncc(-c2ccc(CN[C@H]3CC[C@@H](N(C)c4ncnc5sc(C6COC6)cc45)C3)cc2)c1` [Example 48, (1R,3S)-N^3-{[4-(5-methoxypyridin-3-yl)phenyl]methyl}-N^1-methyl-N^1-[6-(oxetan-3-yl)thieno[2,3-d]pyrixnidin-4-yl]cyclopentane-1,3-diamine hydrochloride], half-maximal inhibition (IC50) was put at 1420 nM.
`O=C1CCC(c2ccc(CN[C@H]3CCC[C@@H](Nc4ncnc5sc(CC(F)(F)F)cc45)C3)cc2)N1` (mixture of isomers) [Example 39, 5-[4-({[(1S,3R)-3-{[6-(2,2,2-trifluoroethyl)thieno[2,3-d]pyrimidin-4-yl[amino}cyclohexyl]amino}methyl)phenyl]pyrrolidin-2-one hydrochloride (diastereomer mixture)] showed a concentration for half-maximal inhibition (IC50) of 2070 nM.
`CNc1nc(N(C)[C@H]2C[C@@H](NCc3ccc(-c4cnc(OC)c(OC)c4)cc3)C[C@@H]2OC)c2cc(CC(F)(F)F)sc2n1` [Example 24, N^4-[(1S,2S,4R)-4-({[4-(5,6-dimethoxypyridin-3-yl)phenyl]methyl}amino)-2-methoxycyclopentyl]-N^2,N^4-dimethyl-6-(2,2,2-trifluoroethyl)thieno[2,3-d]pyrimidine-2,4-diamine Hydrochloride] returned a half-inhibitory concentration (IC50) of 4.1 nM.
With `FC(F)(F)Cc1cc2c(N[C@@H]3CCC[C@H](NCc4ccc(-c5nnc[nH]5)cc4)C3)ncnc2s1` [Example 37, (1S,3R)-N^1-{[4-(4H-1,2,4-triazol-3-yl)phenyl]methyl}-N^3-[6-(2,2,2-trifluoroethyl)thieno[2,3-d]pyrimidin-4-yl]cyclohexane-1,3-diamine hydrochloride], half-maximal inhibition (IC50) was put at 701 nM.
